According to ChEMBL document CHEMBL4428105, “Conformational and electrostatic analysis of SN1 donor analogue glycomimetic inhibitors of ST3Gal-I mammalian sialyltransferase” (Bioorg Med Chem, 2016):

Assay: Inhibition of rat recombinant ST3Gal-1 using CMP-Neu5Ac as substrate after 20 mins by fluorescence based reverse phase HPLC analysis

| SMILES | IC50 [mM] |
| --- | --- |
| CC(=O)N[C@H]1[C@H]([C@H](O)[C@H](O)CO)O[C@](CCP(=O)(O)OC[C@H]2O[C@@H](n3ccc(N)nc3=O)[C@H](O)[C@@H]2O)(C(N)=O)C[C@@H]1O | 3.3 |
| CC(=O)N[C@H]1[C@H]([C@H](O)[C@H](O)CO)O[C@@](CO)(CCP(=O)(O)OC[C@H]2O[C@@H](n3ccc(N)nc3=O)[C@H](O)[C@@H]2O)C[C@@H]1O | 4.2 |
| CC(=O)N[C@H]1[C@H]([C@H](O)[C@H](O)CO)O[C@](CCP(=O)(O)OC[C@H]2O[C@@H](n3ccc(N)nc3=O)[C@H](O)[C@@H]2O)(C(=O)O)C[C@@H]1O | 0.047 |
